Laboratory results: US12558356B2, “Immunophilin binding agents and uses thereof” (The Regents of the University of California, priority 2019, dated 2026)
Like-named read-outs stand apart in the source and are kept apart here. Blank lines part the entries; values can stand above or below the compound they belong to.

Experiments:
Jurkat cells [1] = experiment: CD3 crosslinking (OKT3)-triggered T cell activation, phosphotyrosine Western blot; assay type: cell-based; settings: for Total phospho-tyrosine level and phosphorylation of TCR signaling proteins: 100 nM
[2] = test system: 139 kinases captured by the probe in Jurkat cells; experiment: XO44 chemoproteomic probe kinome occupancy in live cells; assay type: cell-based; settings: 100 nM, among 139 kinases captured by XO44 in Jurkat cells
Jurkat cells [3] = experiment: Drug washout, phosphotyrosine recovery (residence time in cells); assay type: cell-based; settings: 100 nM for 1 h, then drug removed
K562 cells [4] = experiment: Growth inhibition of K562 cells; assay type: cell-based
Source text: The unique dependency of FK506-dasatinib on FKBP proteins implied that it may be exploited to modulate the function of these molecules. […]. Meanwhile, the blocker compound […] dasatinib-treated samples (FIG. 13A, lanes 2 and 5). […].

[5] = test system: p-Tyr signaling in Jurkat cells; experiment: Phosphotyrosine / TCR signaling in Jurkat cells (Western blot); assay type: cell-based
Experimental: Jurkat cells (1×10^6/mL) were treated with 100 nM of the indicated compounds for 1 h, then were washed 3 times with PBS and resuspended in culture media. Samples were taken at the indicated time points and lysed immediately.

K562 cells [6] = experiment: Growth inhibition of K562 cells; assay type: cell-based; remark: listed apart in the source
[7] = target: T1, Src kinase domain and FKBP12 (Homo sapiens (Human), UniProt P12931+P62942); experiment: Ternary complex formation of Src, FKBP12 and compound; assay type: binding
Experimental: Fractions of 0.5 mL were collected and analyzed by SDS-PAGE.
Pulldown was performed with Jurkat cell lysate (1 mg/mL, 200 μL), supplemented with 2 μg HA-FKBP12.

FKBP12 [8] = target: T2, FKBP12 (Homo sapiens (Human), UniProt P62942); experiment: FKBP12 binding assay (fluorescence polarization)
Src = Src (Homo sapiens (Human), UniProt P12931); assay type: biochemical
Csk = Csk (Homo sapiens (Human), UniProt P41240); experiment: In vitro kinase assay, ATP at apparent Km; assay type: biochemical
DDR2 = DDR2 (Homo sapiens (Human), UniProt Q16832); experiment: In vitro kinase assay, ATP at apparent Km; assay type: biochemical
[9] = test system: panel of 485 protein kinases; experiment: Kinase selectivity profiling; assay type: biochemical; settings: 485 kinases, 10 nM inhibitor, 10 μM FKBP12
[10] = target: T1, Src kinase domain and FKBP12; experiment: Ternary complex formation by size exclusion chromatography; assay type: binding; settings: ~50 kDa complex
[11] = target: T1, Src kinase domain and FKBP12; experiment: Differential scanning fluorimetry; assay type: binding
Src / HA-FKBP12 = Src / HA-FKBP12 (Homo sapiens (Human), UniProt P12931+P62942); experiment: Co-immunoprecipitation of Src with HA-FKBP12 in Jurkat cell lysates; assay type: binding
FKBP12 [12] = target: T2, FKBP12; experiment: FKBP12 binding
MCF7 cells = experiment: FKBP dependence of Rapamycin/RapaLink-1 function in MCF7 cells; assay type: cell-based; settings: MCF7 cells dosed at 50% confluency, 37° C., 24 h
Experimental: FIG. 4. […] MCF7 cells dosed at 50% confluency, 37° C., 24 h.

glioblastoma PDX = settings: mice; Fan, Q. et al., 2017, Cancer Cell; cited from earlier work
p-S6 level in MCF7 cells = experiment: Western blot of p-S6 level in MCF7 cells after combination treatment with Rapa/Rapalink and candidate compound (blockade score); assay type: cell-based; settings: 10 nM Rapalink + 10 μM candidate compound, 24 h, p-S6 level as fraction of DMSO control
[13] = test system: mTOR signaling in brain and skeletal muscle; experiment: In vivo brain/periphery mTOR inhibition in mouse model, blocker combined with rapamycin or RapaLink-1
KRAS^G12C and CypA = KRAS^G12C and CypA (Homo sapiens (Human), UniProt P01116+P62937, G12C); experiment: Complex of labeled KRAS G12C with CypA; assay type: binding
Ras•GDP / Sos = Ras•GDP / Sos (Homo sapiens (Human), UniProt P01112+P62937, M72C); experiment: HRAS/CypA ternary complex and Sos-mediated nucleotide exchange; assay type: biochemical
Experimental: FIG. 56. […] Assay conditions: 1 μM Ras•GDP, 1 μM Mant-GDP, 20 mM EPES 7.5, 150 mM NaCl, 10 mM EDTA or 1 μM Sos. 95A is synonymous to ZZY06-031.

Ras•Raf = Ras•Raf binding pulldown; settings: 100 nM KRAS
Experimental: FIG. 57. […] Pulldown conditions: 100 nM KRAS, 50 μg/mL BSA, 20 mM HEPES 7.5, 150 mM NaCl, 5 mM MgCl2, 1 mM […], 1% NP-40. GppNHp loaded proteins were prepared by EDTA-mediated nucleotide exchange.

[14] = Jurkat cells stimulated with OKT3
[15] = 10 μM recombinant FKBP12 in assay buffer
[16] = standard assay conditions, no FKBP12

T1 sequence (P12931 whole entry, looked up, species assumed, the tested form may be a part): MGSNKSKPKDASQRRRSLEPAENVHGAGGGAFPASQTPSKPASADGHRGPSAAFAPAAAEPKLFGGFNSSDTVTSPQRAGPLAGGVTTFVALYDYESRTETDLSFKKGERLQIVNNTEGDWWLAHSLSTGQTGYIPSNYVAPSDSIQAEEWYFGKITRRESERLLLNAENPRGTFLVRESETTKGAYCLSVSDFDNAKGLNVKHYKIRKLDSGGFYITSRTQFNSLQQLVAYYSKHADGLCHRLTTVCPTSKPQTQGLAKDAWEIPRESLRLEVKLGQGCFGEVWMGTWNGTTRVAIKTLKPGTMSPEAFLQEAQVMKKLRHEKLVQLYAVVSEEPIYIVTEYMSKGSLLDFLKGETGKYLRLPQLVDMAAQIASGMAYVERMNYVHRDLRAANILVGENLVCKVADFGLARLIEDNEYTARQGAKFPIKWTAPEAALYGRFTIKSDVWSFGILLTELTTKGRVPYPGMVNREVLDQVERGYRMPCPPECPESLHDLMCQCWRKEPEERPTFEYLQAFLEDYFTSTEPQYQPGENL
T1 sequence (P62942 whole entry, looked up, species assumed, the tested form may be a part): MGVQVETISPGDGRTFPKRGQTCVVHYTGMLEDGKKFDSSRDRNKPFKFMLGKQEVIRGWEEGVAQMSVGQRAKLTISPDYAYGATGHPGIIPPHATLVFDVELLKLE
Chain of DDR2 (Q16832 22-855, species assumed): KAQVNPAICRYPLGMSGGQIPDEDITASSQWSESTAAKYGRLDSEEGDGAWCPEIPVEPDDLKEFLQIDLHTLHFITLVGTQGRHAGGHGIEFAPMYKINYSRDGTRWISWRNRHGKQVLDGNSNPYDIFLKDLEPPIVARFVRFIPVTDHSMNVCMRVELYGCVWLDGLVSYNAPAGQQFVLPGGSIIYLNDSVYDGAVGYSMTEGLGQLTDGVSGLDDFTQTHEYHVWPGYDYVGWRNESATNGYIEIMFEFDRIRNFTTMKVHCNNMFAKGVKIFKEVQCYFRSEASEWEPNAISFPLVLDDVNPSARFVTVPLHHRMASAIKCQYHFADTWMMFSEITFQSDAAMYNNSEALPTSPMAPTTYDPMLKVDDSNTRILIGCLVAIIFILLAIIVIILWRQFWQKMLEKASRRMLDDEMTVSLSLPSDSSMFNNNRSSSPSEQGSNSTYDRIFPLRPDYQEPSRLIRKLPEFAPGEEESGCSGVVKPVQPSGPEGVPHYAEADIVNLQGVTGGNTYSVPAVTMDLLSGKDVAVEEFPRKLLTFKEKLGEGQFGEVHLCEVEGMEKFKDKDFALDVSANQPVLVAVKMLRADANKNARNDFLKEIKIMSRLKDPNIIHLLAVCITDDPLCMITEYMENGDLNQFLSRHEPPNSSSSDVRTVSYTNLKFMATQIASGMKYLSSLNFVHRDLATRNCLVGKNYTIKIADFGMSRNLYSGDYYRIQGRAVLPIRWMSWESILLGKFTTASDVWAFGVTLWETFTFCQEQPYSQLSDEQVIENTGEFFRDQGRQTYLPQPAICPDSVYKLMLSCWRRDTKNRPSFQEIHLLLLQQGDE
T2 sequence (P62942 whole entry): as the sequence (P62942 whole entry, looked up, species assumed, the tested form may be a part) above
Chain of Src (P12931 whole entry, species assumed): as the sequence (P12931 whole entry, looked up, species assumed, the tested form may be a part) above
Chain of Src / HA-FKBP12 (P12931 whole entry, looked up): as the sequence (P12931 whole entry, looked up, species assumed, the tested form may be a part) above
Chain of Src / HA-FKBP12 (P62942 whole entry, looked up): as the sequence (P62942 whole entry, looked up, species assumed, the tested form may be a part) above

- IC50 (K562 cells [4]; Homo sapiens, K562, absent ZZY05-026 (RapaBlock)): 0.063 nM
- IC50 (K562 cells [4]; Homo sapiens, K562, with 10 μM RapaBlock): 0.16 nM
SMILES: Cc1nc(Nc2ncc(C(=O)Nc3c(C)cccc3Cl)s2)cc(N2CCN(CCO)CC2)n1 [Dasatinib, dasatinib, reference compound]
- Total phospho-tyrosine level and phosphorylation of TCR signaling proteins (Jurkat cells [1]; [14]): dampened
- Number of kinases inhibited >70% [2]: 9
- Time after drug washout to restored phosphotyrosine signal (Jurkat cells [3]): ≤ 1 h

SMILES: CO[C@H]1C[C@@H](C)C/C(C)=C/[C@@H](CCCC(=O)N2CCN(c3cc(Nc4ncc(C(=O)Nc5c(C)cccc5Cl)s4)nc(C)n3)CC2)C(=O)C[C@H](O)[C@@H](C)[C@@H](/C(C)=C/[C@@H]2CC[C@@H](O)[C@H](OC)C2)OC(=O)[C@@H]2CCCCN2C(=O)C(=O)[C@]2(O)O[C@H]1[C@@H](OC)C[C@H]2C [FK506-dasatinib]
- inhibition of TCR signaling / cellular activity [5]: potently inhibits TCR signaling
- cellular retention time ([5]; Jurkat cells, 1 h treatment then washout, monitored over 24 h): long cellular retention time
- concentration inhibiting growth of K562 cells (K562 cells [6]): sub-nanomolar
- growth inhibitory activity in presence of RapaBlock (K562 cells [6]; with RapaBlock): diminished by RapaBlock
- ternary complex formation [7]: forms a stable ternary complex
- Kd (FKBP12 [8]; fluorescence polarization assay, read-out: Kd (binding to FKBP12)): 23 nM
- Potency of inhibition upon FKBP12 supplementation (Src; [15]): equipotent
- IC50 compared to dasatinib (Src; [16]): more than ten-fold greater
- Potency of inhibition upon FKBP12 supplementation (Csk; [15]): equipotent
- IC50 compared to dasatinib (Csk; [16]): more than ten-fold greater
- Extent of kinase inhibition at 1 μM (DDR2; 10 μM recombinant FKBP12, 1 μM inhibitor): failing to fully inhibit
- Potency of inhibition upon FKBP12 supplementation (DDR2; [15]): inferior to dasatinib
- IC50 compared to dasatinib (DDR2; [16]): more than ten-fold greater
- Number of kinases inhibited >70% by both inhibitors [9]: 23
- Complex formation of Src kinase domain and FKBP12 [10]: induced the formation of a stable complex
- Stabilization of both proteins toward thermal denaturation [11]: to a greater extent than dasatinib alone
- Co-immunoprecipitation of Src with HA-FKBP12 (Src / HA-FKBP12): co-immunoprecipitated
- Inhibition of phosphotyrosine signaling in the presence of blocker (Jurkat cells [1]; 100 nM FK506-dasatinib + 10 μM RapaBlock): completely neutralized
- Total phospho-tyrosine level and phosphorylation of TCR signaling proteins (Jurkat cells [1]; [14]): dampened
- Lowest effective concentration (Jurkat cells [1]; [14]): ≤ 10 nM
- EC50 (Jurkat cells [1]; Jurkat cells stimulated with OKT3, read-out: EC50 (phosphotyrosine signal)): 3.4 nM
- Number of kinases inhibited >70% [2]: 9
- Time after drug washout to restored phosphotyrosine signal (Jurkat cells [3]): > 24 h
- Fold increase of IC50 on addition of RapaBlock (K562 cells [4]; 10 μM RapaBlock): > 200 fold
- IC50 (K562 cells [4]; absent ZZY05-026 (RapaBlock)): 0.053 nM
- IC50 (K562 cells [4]; with 10 μM RapaBlock): 10.2 nM
- kinase inhibition (Src, Csk and DDR2): attenuated kinase inhibition
- FKBP12 binding (FKBP12 [12]): maintains potent FKBP12 binding

SMILES: CO[C@@H]1C[C@@H]2CC[C@@H](C)[C@@](O)(O2)C(=O)C(=O)N2CCCC[C@@H]2C(=O)O[C@H]([C@H](C)C[C@H]2CC[C@H](OCCOCc3cn(CCOCCOCCOCCOCCOCCOCCOCCOCCC(=O)NCCCCn4nc(-c5ccc6oc(N)nc6c5)c5c(N)ncnc54)nn3)[C@H](OC)C2)CC(=O)[C@H](C)/C=C(\C)[C@H](O)[C@@H](OC)C(=O)[C@H](C)C[C@H](C)/C=C/C=C/C=C/1C [RapaLink-1]
- dependence of function on FKBP (MCF7 cells): FKBP is essential for the function
- growth of glioblastoma PDX (glioblastoma PDX): suppresses growth

SMILES: CO[C@H]1C[C@@H]2CC[C@@H](C)[C@@](O)(O2)C(=O)C(=O)N2CCCC[C@H]2C(=O)O[C@H]([C@H](C)C[C@@H]2CC[C@@H](O)[C@H](OC)C2)CC(=O)[C@H](C)/C=C(\C)[C@@H](O)[C@@H](OC)C(=O)[C@H](C)C[C@H](C)/C=C/C=C/C=C/1C [Rapamycin, rapamycin]
- dependence of function on FKBP (MCF7 cells): FKBP is essential for the function

SMILES: CO[C@H]1C/C(C)=C/[C@@H](CCCc2ccccn2)C(=O)C[C@H](O)[C@@H](C)[C@@H](/C(C)=C/[C@@H]2CC[C@@H](O)[C@H](OC)C2)OC(=O)[C@@H]2CCCCN2C(=O)C(=O)[C@]2(O)O[C@H]([C@@H](OC)C1)[C@@H](OC)C[C@H]2C [ZZY05-085]
- Kd (FKBP12 [8]): 1.5 nM
- RapaLink-1 Blockade (p-S6 level in MCF7 cells): 3 (>70%)
- In Vivo ([13]; combination with Rapalink-1, dose not given, brain): Appears to have blocked Rapalink-1 in brain

- Kd (FKBP12 [8]; read-out: Kd FKBP12): 2.5 nM
SMILES: CO[C@H]1C/C(C)=C/[C@@H](CCCc2cccc[n+]2[O-])C(=O)C[C@H](O)[C@@H](C)[C@@H](/C(C)=C/[C@@H]2CC[C@@H](O)[C@H](OC)C2)OC(=O)[C@@H]2CCCCN2C(=O)C(=O)[C@]2(O)O[C@H]([C@@H](OC)C1)[C@@H](OC)C[C@H]2C [ZZY05-092 / ZZY06-041]
- RapaLink-1 Blockade (p-S6 level in MCF7 cells): 3 (>70%)
- In Vivo ([13]; 1 mg/kg Rapalink-1 + 40 mg/kg compound, muscle and brain): Dose: 1 mg/kg Rapalink-1 + 40 mg/kg ZZY05- 092 Blocks Rapalink-1 in muscle; Potentiates Rapalink-1 in brain

SMILES: C=CC(=O)N1CCN(c2nc(NCCC(=O)NCCNC(=O)CCC[C@@H](C)[C@@H](O)[C@H]3C(=O)N[C@@H](CC)C(=O)N(C)CC(=O)N(C)[C@@H](CC(C)C)C(=O)N[C@@H](C(C)C)C(=O)N(C)[C@@H](CC(C)C)C(=O)N[C@@H](C)C(=O)N[C@H](C)C(=O)N(C)[C@@H](CC(C)C)C(=O)N(C)[C@@H](CC(C)C)C(=O)N(C)[C@@H](C(C)C)C(=O)N3C)nc3c(F)c(-c4c(O)cccc4F)c(Cl)cc23)CC1 [ZZY07-014]
- melting curve of KRAS•CypA•compound complex (KRAS^G12C and CypA): 2-stage melting curve

SMILES: C=CC(=O)Nc1cc(Cl)cc(NC(=O)c2cnn(-c3ccc(OCC(=O)N4CCN(C(=O)CCC[C@@H](C)[C@@H](O)[C@H]5C(=O)N[C@@H](CC)C(=O)N(C)CC(=O)N(C)[C@@H](CC(C)C)C(=O)N[C@@H](C(C)C)C(=O)N(C)[C@@H](CC(C)C)C(=O)N[C@@H](C)C(=O)N[C@H](C)C(=O)N(C)[C@@H](CC(C)C)C(=O)N(C)[C@@H](CC(C)C)C(=O)N(C)[C@@H](C(C)C)C(=O)N5C)CC4)cc3)c2C(F)(F)F)c1 [ZZY08-058]
- ternary complex formation with HRAS and CypA (Ras•GDP / Sos): forms a ternary complex
- Sos-mediated nucleotide exchange (Ras•GDP / Sos; 1 μM Ras•GDP, 1 μM Mant-GDP, 10 mM EDTA or 1 μM Sos): inhibits Sos-mediated nucleotide exchange
- Ras•Raf binding of HRAS•CypA•compound ternary complex (Ras•Raf): does not seem to impair Ras•Raf binding
